Experimental data taken from patent US12509460B2 (Skyhawk Therapeutics, Inc., priority 2019, dated 2025).
Read-outs that look alike come from different tables or passages of the source.

Assays:
[1] = tested on: SMN FL and SMN Δ7 in spinal muscular atrophy (SMA) patient fibroblasts (GM03813, Coriell); assay: Quantitative splicing assay (SMN), qPCR; format: cell-based, human; conditions: Homo sapiens, Fibroblast, 24 h, read-out: SMN2 Splicing FL EC50
Protocol: Spinal muscular atrophy (SMA) patient fibroblasts (GM03813, Coriell) are plated in 96-well plates at 50,000 cells/well. […] Treated cells are lysed and cDNA synthesized using the Fast Advanced Cells-to-Ct kit (Thermofisher A35378) according to the manufacturer's instructions. 2 μL of each cDNA are used in qPCR reactions. […] Reactions are run in a Quant Studio 6 qPCR instrument with default settings.

MDR1 (P-gp) = assay: Blood-brain-barrier (BBB) penetration potential via MDCK-MDR1 permeability assay; conditions: dog; for Papp A→B at 120 min, 5 μM: MDCK-MDR1, pH 7.4, MDCK-MDR1: Papp A-B; for Papp B→A at 120 min, 5 μM: MDCK-MDR1, pH 7.4, MDCK-MDR1: Papp B-A
[2] = tested on: MDR1-MDCK cell monolayers; assay: as above
MDR1 = assay: as above; conditions: dog, MDCK-MDR1, pH 7.4, MDCK-MDR1: Efflux
[3] = tested on: mHTT protein in GM04724 (CAG 70/20) Huntington's disease patient lymphoblast cells; assay: mHTT protein assay, 2B7-MW1 assay via Mesoscale Discovery (MSD); format: cell-based, human; conditions: for EC50: GM04724 Huntington's disease patient lymphoblasts; for mHTT protein EC50: GM04724 (CAG 70/20) Huntington's disease patient lymphoblasts
In short: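 Signal from the 2B7-MW1 antibody pair on MSD, rising with polyQ length and smaller HTT fragments, measured mHTT after 48 h compound exposure (0.6 nM–10 μM) in GM04724 cells. A parallel replicate plate gave CellTiter Glo viability.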

[4] = tested on: SMN protein in spinal muscular atrophy (SMA) patient fibroblasts (GM03813, Coriell); assay: SMN protein assay, Mesoscale Discovery (MSD); format: cell-based, human; conditions: read-out: SMN2 protein EC50
In short: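 Absolute SMN levels were quantified by MSD against an SMN protein standard curve (1 μg/ml to 19.5 pg/ml) run on each plate. Samples were lysates of GM03813 patient fibroblasts (7000 cells/well) treated 48 hours with compound doses from 2.5 μM down to 0.6 nM.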

[5] = SMA patient fibroblasts GM03813, 24 h, qPCR
[6] = SMA patient fibroblasts GM03813, 48 hours, MSD
[7] = SMA patient fibroblasts (GM03813)
[8] = SMA patient fibroblasts (GM03813), 48 hours

Compound	EC50 [1, 5]	Papp A→B at 120 min, 5 μM (MDR1 (P-gp); A-B direction)	Papp B→A at 120 min, 5 μM (MDR1 (P-gp); B-A direction)	MDCK-MDR1: % Recov A-B ([2]; A-B direction)	MDCK-MDR1: % Recov B-A ([2]; B-A direction)	efflux ratio at 120 min, 5 μM (MDR1; efflux ratio)	EC50 [3]	EC50 [4, 6]	EC50 [1, 7]	Papp A→B at 120 min, 5 μM (MDR1 (P-gp); A-B)	Papp B→A at 120 min, 5 μM (MDR1 (P-gp); B-A)	MDCK-MDR1: % Recov A-B ([2]; A-B)	MDCK-MDR1: % Recov B-A ([2]; B-A)	efflux ratio at 120 min, 5 μM (MDR1)	mHTT protein EC50 [3]	EC50 [4, 8]
CN(c1ccc(-c2ccc(-c3cnn(C(F)F)c3)cc2O)nn1)[C@@H]1C[C@H]2CCC[C@H](N2)[C@@H]1F [Compound 21A, 5-(1-(difluoromethyl)-1H-pyrazol-4-yl)-2-(6-(((1S,2S,3R,5R)-2-fluoro-9-azabicyclo[3.3.1]nonan-3-yl)(methyl)amino)pyridazin-3-yl)phenol]	51 to 100 nM	1.99 ×10⁻⁶ cm/s	19.3 ×10⁻⁶ cm/s	34%	71%	10	16 to 50 nM	0.01 to 15 nM								
CN(c1ccc(-c2cc(F)c(-n3ccnn3)cc2O)nn1)[C@H]1C[C@@H]2CC[C@H]([C@H]1F)N2C [Compound 103B, 4-fluoro-2-(6-(((1R,2R,3S,5S)-2-fluoro-8-methyl-8-azabicyclo[3.2.1]octan-3-yl)(methyl)amino)pyridazin-3-yl)-5-(1H-1,2,3-triazol-1-yl)phenol]									101 to 500 nM	12.6 ×10⁻⁶ cm/s	49.1 ×10⁻⁶ cm/s	95%	94%	4	E (501 ≤ E ≤ 10.000)	51 to 100 nM
CC#Cc1ccc(-c2ccc(N(C)[C@@H]3C[C@H]4CC[C@H](N4)[C@@H]3F)nn2)c(O)c1 (single isomer, unassigned) [Compound 30A]	51 to 100 nM	11.1 ×10⁻⁶ cm/s	19.7 ×10⁻⁶ cm/s	35%	55%	2	16 to 50 nM	0.01 to 15 nM								
CN(c1ccc(-c2cc3ncn(CC(F)(F)F)c(=O)c3cc2O)nn1)[C@@H]1C[C@H]2CCC[C@H](N2)[C@@H]1F [Compound 58A, 7-(6-(((1S,2S,3R,5R)-2-fluoro-9-azabicyclo[3.3.1]nonan-3-yl)(methyl)amino)pyridazin-3-yl)-6-hydroxy-3-(2,2,2-trifluoroethyl)quinazolin-4(3H)-one]	101 to 500 nM	0.36 ×10⁻⁶ cm/s	71.4 ×10⁻⁶ cm/s	86%	89%	201	101 to 500 nM	0.01 to 15 nM								
CN(c1ccc(-c2cc3oc(C(=O)N4CCC4)cc3cc2O)nn1)[C@H]1C[C@@H]2CC[C@H]([C@H]1F)N2C [Compound 107B, azetidin-1-yl(6-(6-(((1R,2R,3S,5S)-2-fluoro-8-methyl-8-azabicyclo[3.2.1]octan-3-yl)(methyl)amino)pyridazin-3-yl)-5-hydroxybenzofuran-2-yl)methanone]									101 to 500 nM	0.99 ×10⁻⁶ cm/s	46.3 ×10⁻⁶ cm/s	76%	84%	47	E (501 ≤ E ≤ 10.000)	16 to 50 nM
Cc1cc(=O)c2cc(-c3ccc(N(C)[C@@H]4C[C@H]5CC[C@@H]([C@@H]4F)N5C)nn3)c(O)cc2o1 [Compound 100A, 6-(6-(((1S,2S,3R,5R)-2-fluoro-8-methyl-8-azabicyclo[3.2.1]octan-3-yl)(methyl)amino)pyridazin-3-yl)-7-hydroxy-2-methyl-4H-chromen-4-one]									101 to 500 nM	6.34 ×10⁻⁶ cm/s	40.7 ×10⁻⁶ cm/s	80%	102%	6	E (501 ≤ E ≤ 10.000)	51 to 100 nM
CN(c1ccc(-c2ccc(-n3ccnc3)cc2O)nn1)[C@@H]1C[C@H]2CCC[C@H](N2)[C@@H]1F [Compound 11A, 2-(6-(((1S,2S,3R,5R)-2-fluoro-9-azabicyclo[3.3.1]nonan-3-yl)(methyl)amino)pyridazin-3-yl)-5-(1H-imidazol-1-yl)phenol]	51 to 100 nM	2.76 ×10⁻⁶ cm/s	53.2 ×10⁻⁶ cm/s	79%	90%	19	0.01 to 15 nM	0.01 to 15 nM								
CN(c1ccc(-c2ccc(-c3cnn(C)c3)cc2O)nn1)[C@H]1C[C@@H]2CCC[C@@H](N2)[C@H]1F [Compound 15B, 2-(6-(((1R,2R,3S,5S)-2-fluoro-9-azabicyclo[3.3.1]nonan-3-yl)(methyl)amino)pyridazin-3-yl)-5-(1-methyl-1H-pyrazol-4-yl)phenol]	0.01 to 15 nM	3.21 ×10⁻⁶ cm/s	39.3 ×10⁻⁶ cm/s	62%	84%	12	0.01 to 15 nM	0.01 to 15 nM								
CN(c1ccc(-c2ccc(C#N)cc2O)nn1)[C@H]1C[C@@H]2CC[C@@H](N2)[C@H]1F [Compound 38B, 4-(6-(((1R,2R,3S,5S)-2-fluoro-8-azabicyclo[3.2.1]octan-3-yl)(methyl)amino)pyridazin-3-yl)-3-hydroxybenzonitrile]	16 to 50 nM	18.9 ×10⁻⁶ cm/s	47.1 ×10⁻⁶ cm/s	95%	102%	2	16 to 50 nM	16 to 50 nM								
CN(c1ccc(-c2cc3ncn(CC(F)(F)F)c(=O)c3cc2O)nn1)[C@@H]1C[C@H]2CC(F)(F)[C@@H](C1)N2 [Compound 59A, 7-(6-(((1S,3R,5R)-6,6-difluoro-8-azabicyclo[3.2.1]octan-3-yl)(methyl)amino)pyridazin-3-yl)-6-hydroxy-3-(2,2,2-trifluoroethyl)quinazolin-4(3H)-one]	51 to 100 nM	2.11 ×10⁻⁶ cm/s	74 ×10⁻⁶ cm/s	97%	96%	35	101 to 500 nM	16 to 50 nM								
CN(c1ccc(-c2cc3nnccc3cc2O)nn1)[C@@H]1C[C@H]2CC[C@H](N2)[C@@H]1F [Compound 89A, 7-(6-(((1S,2S,3R,5R)-2-fluoro-8-azabicyclo[3.2.1]octan-3-yl)(methyl)amino)pyridazin-3-yl)cinnolin-6-ol]	101 to 500 nM	1.31 ×10⁻⁶ cm/s	67.3 ×10⁻⁶ cm/s	92%	106%	51	101 to 500 nM	16 to 50 nM								
CN(c1ccc(-c2ccc(-n3cnc(C#N)c3)cc2O)nn1)[C@@H]1C[C@H]2CCC[C@H](N2)[C@@H]1F [Compound 63A, 1-(4-(6-(((1S,2S,3R,5R)-2-fluoro-9-azabicyclo[3.3.1]nonan-3-yl)(methyl)amino)pyridazin-3-yl)-3-hydroxyphenyl)-1H-imidazole-4-carbonitrile]	16 to 50 nM	1.5 ×10⁻⁶ cm/s	46 ×10⁻⁶ cm/s	76%	91%	31	51 to 100 nM	0.01 to 15 nM								
CN(c1ccc(-c2ccc(-n3cnc(C#N)c3)cc2O)nn1)[C@H]1C[C@@H]2CC[C@@H](N2)[C@H]1F [Compound 69B, 1-(4-(6-(((1R,2R,3S,5S)-2-fluoro-8-azabicyclo[3.2.1]octan-3-yl)(methyl)amino)pyridazin-3-yl)-3-hydroxyphenyl)-1H-imidazole-4-carbonitrile]	51 to 100 nM	1.51 ×10⁻⁶ cm/s	52.3 ×10⁻⁶ cm/s	88%	90%	35	16 to 50 nM	0.01 to 15 nM								
